# In patent US8258134B2, “Pyridazinone glucokinase activators” (Hoffmann-La Roche Inc., priority 2008, dated 2012):
# Target: T1, Recombinant human liver GK1 (GST-GK) (Homo sapiens, UniProt P35557)
# T1 construct: made in house; host or cells: E. coli
# T1 sequence (P35557 1-466 isoform P35557-2): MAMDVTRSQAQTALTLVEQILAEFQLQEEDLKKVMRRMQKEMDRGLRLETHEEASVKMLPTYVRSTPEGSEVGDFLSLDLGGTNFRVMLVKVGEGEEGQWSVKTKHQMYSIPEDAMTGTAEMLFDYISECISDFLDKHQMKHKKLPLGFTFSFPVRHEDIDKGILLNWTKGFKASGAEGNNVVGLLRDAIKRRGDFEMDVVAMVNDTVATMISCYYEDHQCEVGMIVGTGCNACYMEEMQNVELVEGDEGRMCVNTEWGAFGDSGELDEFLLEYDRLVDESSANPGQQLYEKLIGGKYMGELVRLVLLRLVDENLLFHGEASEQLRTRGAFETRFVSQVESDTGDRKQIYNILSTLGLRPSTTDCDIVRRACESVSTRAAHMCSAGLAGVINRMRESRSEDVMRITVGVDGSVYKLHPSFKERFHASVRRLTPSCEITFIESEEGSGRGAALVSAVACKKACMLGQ
# Assay: Glucokinase in vitro assay (G6PDH-coupled NADH generation, OD340)
# Format: biochemical
# Details: 5 mM D-glucose, 30° C., pH 7.1, 10% DMSO
# Experimental: Glucokinase In Vitro Assay Protocol: Glucokinase (GK) was assayed by coupling the production of glucose-6-phosphate to the generation of NADH with glucose-6-phosphate dehydrogenase (G6PDH, 0.75-1 k units/mg; Boehringer Mannheim, Indianapolis, Ind.) from Leuconostoc mesenteroides as the coupling enzyme (Scheme 2):
# Recombinant human liver GK1 was expressed in E. coli as a glutathione S-transferase fusion protein (GST-GK) [Liang et al, 1995] and was purified by chromatography over a glutathione-Sepharose 4B affinity column using the procedure provided by the manufacturer (Amersham Pharmacia Biotech, Piscataway, N.J.).
# The assay was conducted at 30° C. in a flat bottom 96-well tissue culture plate from Costar (Cambridge, Mass.) with a final incubation volume of 120 μL. The incubation reaction contained the following: 25 mM Hepes buffer (pH 7.1), 25 mM KCl, 5 mM D-glucose, 1 mM ATP, 1.8 mM NAD, 2 mM MgCl2, 1 μM sorbitol-6-phosphate, 1 mM dithiothreitol, test drug or 10% DMSO, ˜7 units/ml G6PDH, and GK (see below). All organic reagents were >98% pure and were from Boehringer Mannheim with the exceptions of D-glucose and Hepes which were from Sigma Chemical Co, St Louis, Mo. Test compounds were dissolved in DMSO and were added to the incubation reaction minus GST-GK in a volume of 12 μL to yield a final DMSO concentration of 10%. This mix was pre-incubated in the temperature controlled chamber of a SPECTRAmax 250 microplate spectrophotometer (Molecular Devices Corporation, Sunnyvale, Calif.) for 10 minutes to allow temperature equilibrium and then the reaction was started by the addition of 20 μL GST-GK.
# After addition of enzyme, the increase in optical density (OD) at 340 nm was monitored spectrophotometrically to determine the rate of change (OD340 per min). The GK activity (OD340/min) in control wells (10% DMSO minus GK activators) was compared with the activity in wells containing test GK activators, and the concentration of activator that produced a 50% increase in the activity of GK, i.e., the SC1.5, was calculated. The table below provides the in vitro glucokinase activity for the compounds in the Examples: […]
row,SC1.5 average (concentration of activator that produced a 50% increase in the activity of GK),SMILES
1,0.043 µM,"Cc1ccccc1Oc1cnn([C@@H](CC2CCCC2)C(=O)Nc2ccc(C(=O)O)cn2)c(=O)c1 [Example 74A, 6-[(S)-3-Cyclopentyl-2-(6-oxo-4-o-tolyloxy-6H-pyridazin-1-yl)-propionylamino]-nicotinic acid]"
2,26.185 µM,"CC(C)(O)Cn1ccc(NC(=O)[C@@H](CC2CCCC2)n2ncc(Oc3ccc(F)cc3F)cc2=O)n1 [Example 32B, (R)-3-Cyclopentyl-2-[4-(2,4-difluoro-phenoxy)-6-oxo-6H-pyridazin-1-yl]-N-[1-(2-hydroxy-2-methyl-propyl)-1H-pyrazol-3-yl]-propionamide]"
3,1.566 µM,"CC(C)(O)Cn1ccc(NC(=O)[C@H](CC2CCCC2)n2ncc(Oc3ccccc3S(C)(=O)=O)cc2=O)n1 [Example 30A, (S)-3-Cyclopentyl-N-[1-(2-hydroxy-2-methyl-propyl)-1H-pyrazol-3-yl]-2-[4-(2-methanesulfonyl-phenoxy)-6-oxo-6H-pyridazin-1-yl]-propionamide]"
4,0.044 µM,"O=C(O)c1ccc(NC(=O)[C@H](CC2CCCC2)n2ncc(Oc3cccc4c3CCCC4)cc2=O)nc1 [Example 72A, 6-{(S)-3-Cyclopentyl-2-[6-oxo-4-(5,6,7,8-tetrahydro-naphthalen-1-yloxy)-6H-pyridazin-1-yl]-propionylamino}-nicotinic acid]"
5,0.18 µM,"CC(C)(O)Cn1ccc(NC(=O)[C@H](CC2CCCC2)n2ncc(Oc3cccc(F)c3F)cc2=O)n1 [Example 31A, (S)-3-Cyclopentyl-2-[4-(2,3-difluoro-phenoxy)-6-oxo-6H-pyridazin-1-yl]-N-[1-(2-hydroxy-2-methyl-propyl)-1H-pyrazol-3-yl]-propionamide]"
6,0.17 µM,"CC(C)C[C@@H](C(=O)Nc1ccn(CC(C)(C)O)n1)n1ncc(Oc2c(F)cccc2F)cc1=O [Example 42A, (S)-2-[4-(2,6-Difluoro-phenoxy)-6-oxo-6H-pyridazin-1-yl]-4-methyl-pentanoic acid [1-(2-hydroxy-2-methyl-propyl)-1H-pyrazol-3-yl]-amide]"

# The next lines start with the compound.
row,SMILES,SC1.5 average (concentration of activator that produced a 50% increase in the activity of GK)
1,"CC(C)(O)Cn1ccc(NC(=O)C(CC2CCCC2)n2ncc(OCC3CCCC3)c(Cl)c2=O)n1 (stereo not shown) [Example 10, 2-(5-Chloro-4-cyclopentylmethoxy-6-oxo-6H-pyridazin-1-yl)-3-cyclopentyl-N-[1-(2-hydroxy-2-methyl-propyl)-1H-pyrazol-3-yl]-propionamide]",11.438 µM
2,"O=C(Nc1ccn(C[C@@H](O)CO)n1)C(CC1CCCC1)n1ncc(Oc2cccc(Cl)c2F)cc1=O (stereo partly drawn) [Example 104, 2-[4-(3-Chloro-2-fluoro-phenoxy)-6-oxo-6H-pyridazin-1-yl]-3-cyclopentyl-N-[1-((R)-2,3-dihydroxy-propyl)-1H-pyrazol-3-yl]-propionamide]",0.139 µM
3,"CC(C)(O)Cn1ccc(NC(=O)C(CC2CCCC2)n2ncc3ccccc3c2=O)n1 (stereo not shown) [Example 84, 3-Cyclopentyl-N-[1-(2-hydroxy-2-methyl-propyl)-1H-pyrazol-3-yl]-2-(1-oxo-1H-phthalazin-2-yl)-propionamide]",15.983 µM
4,"CC(C)(O)Cn1ccc(NC(=O)C(CC2CCCC2)n2ncc(Oc3cccc4ncccc34)cc2=O)n1 (stereo not shown) [Example 38, 3-Cyclopentyl-N-[1-(2-hydroxy-2-methyl-propyl)-1H-pyrazol-3-yl]-2-[6-oxo-4-(quinolin-5-yloxy)-6H-pyridazin-1-yl]-propionamide]",0.776 µM
5,"CCOc1ccc(F)c(Oc2cnn(C(CC(C)C)C(=O)Nc3ccn(C[C@@H](O)CO)n3)c(=O)c2)c1F (stereo partly drawn) [Example 120, 2-[4-(3-ethoxy-2,6-difluoro-phenoxy)-6-oxo-6H-pyridazin-1-yl]-4-methyl-pentanoic acid [1-((R)-2,3-dihydroxy-propyl)-1H-pyrazol-3-yl]-amide]",0.18 µM
6,"COC(=O)c1ccc(NC(=O)C(CC2CCCC2)n2ncc(Oc3ccccc3C)cc2=O)nc1 (stereo not shown) [Example 69, 6-[3-Cyclopentyl-2-(6-oxo-4-o-tolyloxy-6H-pyridazin-1-yl)-propionylamino]-nicotinic acid methyl ester]",0.033 µM
7,"CCC(CC)CC(C(=O)Nc1ccn(CC(C)(C)O)n1)n1ncc(Oc2c(F)cccc2F)cc1=O (stereo not shown) [Example 52, 2-[4-(2,6-Difluoro-phenoxy)-6-oxo-6H-pyridazin-1-yl]-4-ethyl-hexanoic acid [1-(2-hydroxy-2-methyl-propyl)-1H-pyrazol-3-yl]-amide]",0.456 µM
8,"CC(C)(O)Cn1ccc(NC(=O)C(CC2CCCC2)n2ncc(OCC3CCCC3)cc2=O)n1 (stereo not shown) [Example 9, 3-Cyclopentyl-2-(4-cyclopentylmethoxy-6-oxo-6H-pyridazin-1-yl)-N-[1-(2-hydroxy-2-methyl-propyl)-1H-pyrazol-3-yl]-propionamide]",1.548 µM
9,"COc1ccc(Oc2cnn(C(CC3CCCCC3)C(=O)Nc3ccn(CC(C)(C)O)n3)c(=O)c2)c(F)c1 (stereo not shown) [Example 116, 3-Cyclohexyl-2-[4-(2-fluoro-4-methoxy-phenoxy)-6-oxo-6H-pyridazin-1-yl]-N-[1-(2-hydroxy-2-methyl-propyl)-1H-pyrazol-3-yl]-propionamide]",0.543 µM
10,"O=C(Nc1ccn(CCO)n1)C(Cc1ccccc1)n1ncc(Oc2c(F)cccc2F)cc1=O (stereo not shown) [Example 58, 2-[4-(2,6-Difluoro-phenoxy)-6-oxo-6H-pyridazin-1-yl]-N-[1-(2-hydroxy-ethyl)-1H-pyrazol-3-yl]-3-phenyl-propionamide]",2.719 µM
11,"CC(C)(O)Cn1ccc(NC(=O)C(CC2CCCC2)n2ncc(Sc3ccccc3)cc2=O)n1 (stereo not shown) [Example 123, 3-Cyclopentyl-N-[1-(2-hydroxy-2-methyl-propyl)-1H-pyrazol-3-yl]-2-(6-oxo-4-phenylsulfanyl-6H-pyridazin-1-yl)-propionamide]",0.441 µM
12,"O=C(Nc1nccs1)C(CC1CCCC1)n1ncccc1=O (stereo not shown) [Example 79, 3-Cyclopentyl-2-(6-oxo-6H-pyridazin-1-yl)-N-thiazol-2-yl-propionamide]",14.605 µM
13,"CC(C)(O)Cn1ccc(NC(=O)C(CC2CCCC2)n2ncc(Oc3cccc(F)c3F)cc2=O)n1 (stereo not shown) [Example 31, 3-Cyclopentyl-2-[4-(2,3-difluoro-phenoxy)-6-oxo-6H-pyridazin-1-yl]-N-[1-(2-hydroxy-2-methyl-propyl)-1H-pyrazol-3-yl]-propionamide]",0.209 µM
14,"CC(C)(O)Cn1ccc(NC(=O)C(CC2CCCC2)n2ncc(Cc3ccccc3C(F)(F)F)cc2=O)n1 (stereo not shown) [Example 46, 3-Cyclopentyl-N-[1-(2-hydroxy-2-methyl-propyl)-1H-pyrazol-3-yl]-2-[6-oxo-4-(2-trifluoromethyl-benzyl)-6H-pyridazin-1-yl]-propionamide]",1.947 µM
15,"O=C(Nc1ccn(C[C@@H](O)CO)n1)C(CC1CCCC1)n1ncc(OCCc2ccccc2Cl)cc1=O (stereo partly drawn) [Example 114, 2-{4-[2-(2-Chloro-phenyl)-ethoxy]-6-oxo-6H-pyridazin-1-yl}-3-cyclopentyl-N-[1-((R)-2,3-dihydroxy-propyl)-1H-pyrazol-3-yl]-propionamide]",1.656 µM
16,"O=C(Nc1ccn(C[C@@H](O)CO)n1)C(CC1CCCCC1)n1ncc(Oc2c(F)cccc2F)cc1=O (stereo partly drawn) [Example 63, 3-Cyclohexyl-2-[4-(2,6-difluoro-phenoxy)-6-oxo-6H-pyridazin-1-yl]-N-[1-((R)-2,3-dihydroxy-propyl)-1H-pyrazol-3-yl]-propionamide]",0.117 µM
